Measurements published in US20100167329A1, “DEVICE FOR DRUG SCREENING” (Respiratorius AB, priority 2006, published 2010).

Tested on: small human bronchi
Assay: Repeated LTD4 control contractions of tissue sample in the perfusion chamber (long time stability)
Conditions: LTD4 10 nM, 30 min, alternating with LTD4 free solution 60 min; repeated cycles n=8; after 14 h of measurements; FIG. 2
Protocol: One embodiment of the present invention is illustrated in FIG. 1, wherein the chamber 1 is made out of titanium and has a volume of typically 5 mL. The chamber is mounted on a mounting piece 2 of silver, which contains means for controlling the temperature of the chamber. An inlet 3 and outlet 4 allow a continuous flow of a physiological solution through the chamber ensuring a constant concentration of the substances in the chamber. Tissue sample is placed on hooks 8 and the hooks are placed in the chamber in a suitable position so that the tissue sample is completely immersed in the liquid flowing through the chamber. One of the hooks is attached to a force transducer 9 and the other is a fixed hook. Test substances are injected in the liquid prior to the liquid entering the chamber. As the tissue sample reacts to the substances present in the liquid the force transducer register the tension in the tissue sample due to contraction or relaxation. The force transducer is preferably AME801, which is commercially available from Infineon technologies.
A description of embodiments of the device according to the invention is shown in the previous section. In FIG. 2 control contractions in small human bronchi exposed to repeated (n=8) cycles with LTD4 (10 nM, 30 min) and LTD4 free solution (60 min) for 14 hours, are shown. The error bars show a low variance and good repeatability. […]

Structure (SMILES): CCCCC/C=C\C\C=C/C=C/C=C/[C@@H](SC[C@H](N)C(=O)NCC(=O)O)[C@@H](O)CCCC(=O)O [LTD4]
- original contraction of the bronchi remaining: ~80%
